Results: publication PMC6160999, “Pharmacokinetics, Tissue Distribution and Excretion of a Novel Diuretic (PU-48) in Rats” (Pharmaceutics, 2018)
Like-named read-outs stand apart in the source and are kept apart here.

Test: Plasma pharmacokinetics after single oral PU-48 SNEDDS
Type: in vivo, rat
Settings: for AUC(0-inf) / AUC(0-t) / Cmax / Tmax / t1/2 / half-life: rat plasma, n=6
Experimental: The method for quantification PU-48 in rat samples (plasma, thirteen tissues, urine and bile) has been developed and validated in our preliminary experiment. Briefly, PU-48 was quantitative analyzed by the liquid chromatography-electrospray ionization source-triple quadrupole tandem mass spectrometer (LC-MS/MS) system, which consisted of the Shimazdu LC-20AD pumpers (Shimadzu, Kyoto, Japan), a 20 μL loop and a SPD-M20A PDA detector. Chromatographic separation was accomplished on a Shimazdu Inertsil ODS-4 C18 column (2.1 × 100 mm, 3 µm, Shimadzu) and coupled to the API4000 mass spectrometer detector equipped with the Analyst 1.6 software (AB Sciex, Redwood City, CA, USA). The monitored ion transitions were mass-to-charge ratio (m/z) 289.1 → 229.2 for PU-48 and m/z 385.3 → 267.1 for the internal standard under positive mode. The mobile phase consisted of (A) water, and (B) acetonitrile, both containing 0.05% formic acid using the following gradient elution: 0–2 min (20% B), 2–8 min (20–100% B), 8–9.5 min (100% B), 9.5–13 min (20% B). Sample of 5 μL was injected. The quantification analysis of PU-48 in plasma, urine, bile and tissues (liver, muscle, and adipose tissue) were evaluated for specificity, linearity, precision, accuracy and recovery (See Supplementary Materials Tables S1–S3).
After fasting overnight with free drinking water (12 h before the experiment), eighteen rats were divided randomly into three groups, and blood samples at each time point were collected from six rats. The rats were given three doses of PU-48 (3, 6, or 12 mg/kg, respectively, 1.2 mg/mL in the SNEDDS formulation) by oral gavage. Blood samples (0.3 mL) were collected from the ophthalmic venous plexus at the predose, 0.25, 0.5, 1, 2, 4, 6, 8, 12, 24, 36, and 48 h post-dosing (total 12 time points) in heparinized tubes. The blood samples were centrifuged at 2500 rpm (1200× g) for 15 min and the plasma was stored at −20 °C until analysis.
The non-compartmental analysis method was used to calculate the pharmacokinetic parameters of PU-48 using Drug and Statistical Version 3.0 (DAS 3.0) software (the Mathematical Pharmacology Committee, Chinese Pharmacological Society, Beijing, China). The maximum peak concentration of the drug in plasma (Cmax) and the time to reach the maximum concentration (Tmax) were obtained directly from the experimental data. The area under the plasma concentration-time curves from 0 to infinity (i.e., AUC0–∞) and from 0 to the time of the last quantifiable concentration (AUC0–t) was calculated by the trapezoidal summation. The terminal elimination rate constant (Ke) was derived from the slope of the linear regression curve by fitting the natural logarithms of the terminal concentrations versus time. The terminal elimination half-life (t1/2) was calculated by 0.693/Ke. The data from the quality control (QC) samples were examined by a one-way analysis of variance (ANOVA). All values were expressed as mean ± SD (Standard Deviation).

[1] = plasma, rat, oral PU-48 SNEDDS 3 mg/kg
[2] = plasma, rat, oral PU-48 SNEDDS 6 mg/kg
[3] = plasma, rat, oral PU-48 SNEDDS 12 mg/kg

concentration at 0.25 h [1]: 11.9 ± 15.5 ng/mL | concentration at 0.25 h [2]: 51.1 ± 51.2 ng/mL | concentration at 0.25 h [3]: 91.1 ± 52 ng/mL | concentration at 0.5 h [1]: 12.6 ± 11.1 ng/mL | concentration at 0.5 h [2]: 52.9 ± 46.8 ng/mL | concentration at 0.5 h [3]: 94.3 ± 49.6 ng/mL | concentration at 1 h [1]: 11.8 ± 11.2 ng/mL | concentration at 1 h [2]: 48.3 ± 32.8 ng/mL | concentration at 1 h [3]: 74.8 ± 36.1 ng/mL | concentration at 2 h [1]: 13.8 ± 16.6 ng/mL | concentration at 2 h [2]: 16.8 ± 10.1 ng/mL | concentration at 2 h [3]: 19.7 ± 4.2 ng/mL | concentration at 4 h [1]: 1.1 ± 0.7 ng/mL | concentration at 4 h [2]: 2.3 ± 1.2 ng/mL | concentration at 4 h [3]: 4.3 ± 3.1 ng/mL | concentration at 6 h [1]: 0.3 ± 0.2 ng/mL | concentration at 6 h [2]: 1.2 ± 0.5 ng/mL | concentration at 6 h [3]: 2.1 ± 0.8 ng/mL | concentration at 8 h [1]: 0.5 ± 0.9 ng/mL | concentration at 8 h [2]: 0.6 ± 0.4 ng/mL | concentration at 8 h [3]: 1.5 ± 0.5 ng/mL | concentration at 12 h [1]: 0.1 ± 0.1 ng/mL | concentration at 12 h [2]: 0.3 ± 0.2 ng/mL | concentration at 12 h [3]: 1.1 ± 0.8 ng/mL | concentration at 24 h [2]: 0.3 ± 0.3 ng/mL | concentration at 24 h [3]: 0.1 ng/mL | concentration at 36 h [2]: 0.2 ± 0.1 ng/mL | concentration at 36 h [3]: 0.8 ± 0.9 ng/mL | concentration at 48 h (plasma, 48 h, rat, oral PU-48 SNEDDS 12 mg/kg): 0.2 ng/mL | AUC(0-inf) (oral PU-48 SNEDDS 3 mg/kg): 60.5 ± 38.5 ng·h/mL | AUC(0-t) (oral PU-48 SNEDDS 3 mg/kg): 60 ± 38.3 ng·h/mL | Cmax (oral PU-48 SNEDDS 3 mg/kg): 12.6 ± 11.1 ng/mL | Tmax (oral PU-48 SNEDDS 3 mg/kg): 1.19 ± 0.94 h | t1/2 (oral PU-48 SNEDDS 3 mg/kg): 7.14 ± 2.93 h | AUC(0-inf) (oral PU-48 SNEDDS 6 mg/kg): 108 ± 52.5 ng·h/mL | AUC(0-t) (oral PU-48 SNEDDS 6 mg/kg): 107 ± 53 ng·h/mL | Cmax (oral PU-48 SNEDDS 6 mg/kg): 52.9 ± 46.8 ng/mL | Tmax (oral PU-48 SNEDDS 6 mg/kg): 0.63 ± 0.31 h | AUC(0-inf) (oral PU-48 SNEDDS 12 mg/kg): 181 ± 62.5 ng·h/mL | AUC(0-t) (oral PU-48 SNEDDS 12 mg/kg): 179 ± 60.1 ng·h/mL | Cmax (oral PU-48 SNEDDS 12 mg/kg): 94.3 ± 49.6 ng/mL | t1/2 (oral PU-48 SNEDDS 12 mg/kg): 6.87 ± 3.49 h | half-life (rat, plasma, po, 3 mg/kg, oral PU-48 SNEDDS 3 mg/kg): 7.1 ± 2.9 h | Tmax (rat, plasma, po, 3 mg/kg, oral PU-48 SNEDDS 3 mg/kg, read-out: Tmax): 1.2 ± 0.9 h | half-life (rat, plasma, po, 6 mg/kg, oral PU-48 SNEDDS 6 mg/kg): 7 ± 2.7 h | Tmax (rat, plasma, po, 6 mg/kg, oral PU-48 SNEDDS 6 mg/kg, read-out: Tmax): 0.6 ± 0.3 h | half-life (rat, plasma, po, 12 mg/kg, oral PU-48 SNEDDS 12 mg/kg): 6.9 ± 3.5 h | Tmax (rat, plasma, po, 12 mg/kg, oral PU-48 SNEDDS 12 mg/kg, read-out: Tmax): 0.5 ± 0.27 h
Structure (SMILES): COC(=O)c1sc2nc3ccc(OC)cc3cc2c1N [PU-48, Methyl 3-amino-6-methoxythieno [2,3-b] quinoline-2-carboxylate]
Mean plasma concentration at the 48 h time point (rat, oral 3, 6 and 12 mg/kg, LLOQ 0.1 ng/mL): below the lower limit of quantitation (LLOQ)
